Assay: xn = mol fraction of the nth substance listed
Conditions: 100 kPa, Liquid; for viscosity: Capillary tube (Ostwald / Ubbelohde) method; for mass density: Vibrating tube method

CCC(C)CO (stereo not given) [2-methyl-1-butanol] + CCCCCO
Conditions	mass density, 288.15 K [kg/m3]	mass density, 293.15 K [kg/m3]	mass density, 298.15 K [kg/m3]	mass density, 303.15 K [kg/m3]	viscosity, 288.15 K [mPa·s]	viscosity, 293.15 K [mPa·s]	viscosity, 298.15 K [mPa·s]	viscosity, 303.15 K [mPa·s]	viscosity, 308.15 K [mPa·s]
x2 = 0	823.35	819.64	815.85	812.12	6.439	5.3	4.501	3.825	3.265
x2 = 0.1	822.86	819.15	815.37	811.64	6.245	5.146	4.383	3.725	3.176
x2 = 0.2	822.37	818.66	814.9	811.17	6.036	4.998	4.255	3.63	3.099
x2 = 0.3	821.88	818.19	814.43	810.71	5.819	4.837	4.129	3.518	3.007
x2 = 0.399	821.4	817.71	813.97	810.26	5.595	4.677	3.988	3.402	2.921
x2 = 0.5	820.92	817.24	813.51	809.8	5.361	4.516	3.848	3.287	2.831
x2 = 0.6	820.44	816.77	813.05	809.34	5.128	4.362	3.72	3.197	2.765
x2 = 0.699	819.96	816.3	812.6	808.89	4.916	4.196	3.604	3.114	2.701
x2 = 0.799	819.5	815.84	812.15	808.45	4.741	4.062	3.507	3.051	2.66
x2 = 0.899	819.03	815.38	811.7	808	4.697	4.046	3.489	3.018	2.648

Reference: the NIST ThermoML archive (doi:10.1021/acs.jced.8b00979)
